Results from patent publication US10092568B2, “CBP/Catenin antagonists for enhancing asymmetric division of somatic stem cells” (University of Southern California, priority 2010, dated 2018).
“Also recorded” adds a separate entry of the source.

What was measured:
[1] = tested on: Adenosine Receptor A2B (ADORA2B); experiment: Gene expression array of cells in culture; type: cell-based; details: colonic epithelium, 10 uM
[2] = tested on: NOD/SCIDIL2R gamma−/− mice; experiment: Leukemia mouse model, hair growth and wound healing; type: in vivo; details: 50 mg/kg/d with VDL versus VDL only
Experimental: NOD/SCIDIL2R gamma−/− mice were shaved and sublethally irradiated prior intravenous injection of 50,000 cells per animal. Leukemic animals were treated with a combination of intraperitoneally administered vincristine/dexamethasone/L-Aspariginase (VDL) and ICG-001 (50 mg/kg/d), which was delivered via subcutaneous osmotic pumps to ensure stable plasma levels, with VDL only as a control for 20 days. The animals were checked periodically for survival, hair growth, and wound healing.

[3] = tested on: human skin (surgical waste); experiment: Ex vivo human skin assay, qRT-PCR; type: cell-based; details: 24 hrs; 5 uM ICG-001, 5 uM methylated ICG-001, 1 ug/ml RA
Experimental: Methods. Ex Vivo human skin assay culture conditions were based upon a paper by Varani J et al Experimental and Molecular Pathology, 2004.
Briefly, human skin (surgical waste from plastic surgery procedures) was obtained and the subcutaneous layer of fat was trimmed manually with a scalpel. The skin was then cut into small fragments about 2 mm square and placed in 6 well plates. 1 ml of keratinocyte culture medium (Gibco 10724-011) with 1% P/S (penstrep antibiotic) was added to each well. The epidermis, bathed in media was placed facing up. On the next day (overnight culture in the media above), the skin fragments were transferred to fresh wells that contained either 5 uM ICG-001, 5-uM methylated ICG-001 or 1 ug/ml of retinoic acid (RA). After 24 hrs, skin samples in culture were removed for RNA isolation and qRT-PCR analysis of genes of interest (e.g., elastin (a gene involved in skin appearance and pliability (e.g., wrinkling)) and aquaporin 1, which is involved with hydration.

[4] = tested on: cerebral deposition of Aβ; experiment: Aβ deposition in penta-transgenic mouse model of Alzheimer's disease; type: in vivo; details: 50 mg/kg/day, 2 months
Experimental: Applicant utilized a penta-transgenic mouse model of AD, which normally develops massive cerebral deposition of Aβ starting at 6 weeks of age. These mice were treated with either (A) ICG-001 (50 mg/kg/day) or (B) saline for 2 months. […] However, the effects of PS-1 mutations on the stability of beta-catenin, TCF/beta-catenin signaling, and thereby its potential role in AD remain controversial. […] In the CNS, EpB2 expression is associated with axonal guidance (16). […] In initial in vivo studies, applicant treated penta-transgenic mice that over express mutant APP (695) (Swedish (K670N, M671L), Florida (I716V) and London (V717I)) and PS-1 (M146L and L286V) mutations with ICG-001 for 2 months (months 2-4). These mice normally develop massive cerebral deposition of Aβ starting at 6 weeks of age.

Colorectal cancer cells = experiment: Survivin expression and cytotoxicity in colorectal cancer cells; type: cell-based
Excerpt: (§1) Cancer. The importance of Wnt signaling in colorectal cancer is undisputed. Applicant's investigation on the therapeutic utility of ICG-001 therefore quite naturally began with colon cancer.

[5] = tested on: imatinib resistant (IR) CML cells / leukemia stem cells; experiment: Imatinib resistant CML, in vitro and NOD/SCID/IL2rγ−/− mouse model of engrafted human CML; type: in vivo
Excerpt: Chronic myelogenous leukemia (CML). Despite the stunning clinical success achieved to date in chronic phase CML patients treated with the BCR-ABL antagonist Gleevec/Imatinib (IM), responses in advanced phase patients are often short-lived, and patients invariably undergo disease progression. Furthermore, resistance to IM develops in 2% to 4% of patients annually and IM dose escalation is generally not sufficient to control the disease. Several mechanisms that contribute to tyrosine kinase inhibitor (TKI) resistance have been proposed including the insensitivity of quiescent CML stem cells to TKIs due to low expression of BCR-ABL and the emergence of drug resistant leukemic clones associated with increased nuclear catenin levels, a hallmark of increased Wnt/catenin transcription. […] Epigenetic silencing of negative regulators of the Wnt signaling cascade is also frequently associated with leukemias, including CML. […] The mice treated with one course (28 days from day 13-41 after leukemia engraftment) of CBP/catenin antagonist plus bcr-abl antagonist are essentially cured of leukemia and live as long (approximately 2 years) as their littermates that were never engrafted with leukemia.

Min mouse = Min mouse polyp model; type: in vivo
Excerpt: as §1

p300 = p300 (Homo sapiens, UniProt Q09472); experiment: Binding to coactivator p300
Excerpt: ICG-001. Applicant's pharmacologic tools were identified using cell-based forward chemical genomic screens of small molecule secondary structure template chemical libraries (22).

[6] = target: CBP/beta-catenin interaction (Homo sapiens, UniProt Q92793); experiment: Disruption of the CBP/beta-catenin interaction; type: biochemical
Excerpt: Applicant next mapped the binding domains between CBP and beta-catenin, as well as between p300 and beta-catenin. The C-terminal trans-activating region of beta-catenin (647-781) interacted with the same 1-111 amino acids of both CBP and p300 (23). However, only the interaction between CBP and beta-catenin was disrupted by ICG-001, and not the p300/beta-catenin interaction.

SW620 xenograft = experiment: Nude mouse SW620 xenograft model of colon cancer; type: in vivo
Excerpt: as §1

[7] = tested on: bleomycin-induced pulmonary fibrosis; experiment: Bleomycin-induced lung injury / pulmonary fibrosis; type: in vivo, mouse
Excerpt: The well-characterized model of bleomycin-induced lung injury has been extensively used to investigate potential pathways involved in the pathogenesis of pulmonary fibrosis and to explore therapeutic approaches.

Sequence of p300 (Q09472 whole entry, species assumed): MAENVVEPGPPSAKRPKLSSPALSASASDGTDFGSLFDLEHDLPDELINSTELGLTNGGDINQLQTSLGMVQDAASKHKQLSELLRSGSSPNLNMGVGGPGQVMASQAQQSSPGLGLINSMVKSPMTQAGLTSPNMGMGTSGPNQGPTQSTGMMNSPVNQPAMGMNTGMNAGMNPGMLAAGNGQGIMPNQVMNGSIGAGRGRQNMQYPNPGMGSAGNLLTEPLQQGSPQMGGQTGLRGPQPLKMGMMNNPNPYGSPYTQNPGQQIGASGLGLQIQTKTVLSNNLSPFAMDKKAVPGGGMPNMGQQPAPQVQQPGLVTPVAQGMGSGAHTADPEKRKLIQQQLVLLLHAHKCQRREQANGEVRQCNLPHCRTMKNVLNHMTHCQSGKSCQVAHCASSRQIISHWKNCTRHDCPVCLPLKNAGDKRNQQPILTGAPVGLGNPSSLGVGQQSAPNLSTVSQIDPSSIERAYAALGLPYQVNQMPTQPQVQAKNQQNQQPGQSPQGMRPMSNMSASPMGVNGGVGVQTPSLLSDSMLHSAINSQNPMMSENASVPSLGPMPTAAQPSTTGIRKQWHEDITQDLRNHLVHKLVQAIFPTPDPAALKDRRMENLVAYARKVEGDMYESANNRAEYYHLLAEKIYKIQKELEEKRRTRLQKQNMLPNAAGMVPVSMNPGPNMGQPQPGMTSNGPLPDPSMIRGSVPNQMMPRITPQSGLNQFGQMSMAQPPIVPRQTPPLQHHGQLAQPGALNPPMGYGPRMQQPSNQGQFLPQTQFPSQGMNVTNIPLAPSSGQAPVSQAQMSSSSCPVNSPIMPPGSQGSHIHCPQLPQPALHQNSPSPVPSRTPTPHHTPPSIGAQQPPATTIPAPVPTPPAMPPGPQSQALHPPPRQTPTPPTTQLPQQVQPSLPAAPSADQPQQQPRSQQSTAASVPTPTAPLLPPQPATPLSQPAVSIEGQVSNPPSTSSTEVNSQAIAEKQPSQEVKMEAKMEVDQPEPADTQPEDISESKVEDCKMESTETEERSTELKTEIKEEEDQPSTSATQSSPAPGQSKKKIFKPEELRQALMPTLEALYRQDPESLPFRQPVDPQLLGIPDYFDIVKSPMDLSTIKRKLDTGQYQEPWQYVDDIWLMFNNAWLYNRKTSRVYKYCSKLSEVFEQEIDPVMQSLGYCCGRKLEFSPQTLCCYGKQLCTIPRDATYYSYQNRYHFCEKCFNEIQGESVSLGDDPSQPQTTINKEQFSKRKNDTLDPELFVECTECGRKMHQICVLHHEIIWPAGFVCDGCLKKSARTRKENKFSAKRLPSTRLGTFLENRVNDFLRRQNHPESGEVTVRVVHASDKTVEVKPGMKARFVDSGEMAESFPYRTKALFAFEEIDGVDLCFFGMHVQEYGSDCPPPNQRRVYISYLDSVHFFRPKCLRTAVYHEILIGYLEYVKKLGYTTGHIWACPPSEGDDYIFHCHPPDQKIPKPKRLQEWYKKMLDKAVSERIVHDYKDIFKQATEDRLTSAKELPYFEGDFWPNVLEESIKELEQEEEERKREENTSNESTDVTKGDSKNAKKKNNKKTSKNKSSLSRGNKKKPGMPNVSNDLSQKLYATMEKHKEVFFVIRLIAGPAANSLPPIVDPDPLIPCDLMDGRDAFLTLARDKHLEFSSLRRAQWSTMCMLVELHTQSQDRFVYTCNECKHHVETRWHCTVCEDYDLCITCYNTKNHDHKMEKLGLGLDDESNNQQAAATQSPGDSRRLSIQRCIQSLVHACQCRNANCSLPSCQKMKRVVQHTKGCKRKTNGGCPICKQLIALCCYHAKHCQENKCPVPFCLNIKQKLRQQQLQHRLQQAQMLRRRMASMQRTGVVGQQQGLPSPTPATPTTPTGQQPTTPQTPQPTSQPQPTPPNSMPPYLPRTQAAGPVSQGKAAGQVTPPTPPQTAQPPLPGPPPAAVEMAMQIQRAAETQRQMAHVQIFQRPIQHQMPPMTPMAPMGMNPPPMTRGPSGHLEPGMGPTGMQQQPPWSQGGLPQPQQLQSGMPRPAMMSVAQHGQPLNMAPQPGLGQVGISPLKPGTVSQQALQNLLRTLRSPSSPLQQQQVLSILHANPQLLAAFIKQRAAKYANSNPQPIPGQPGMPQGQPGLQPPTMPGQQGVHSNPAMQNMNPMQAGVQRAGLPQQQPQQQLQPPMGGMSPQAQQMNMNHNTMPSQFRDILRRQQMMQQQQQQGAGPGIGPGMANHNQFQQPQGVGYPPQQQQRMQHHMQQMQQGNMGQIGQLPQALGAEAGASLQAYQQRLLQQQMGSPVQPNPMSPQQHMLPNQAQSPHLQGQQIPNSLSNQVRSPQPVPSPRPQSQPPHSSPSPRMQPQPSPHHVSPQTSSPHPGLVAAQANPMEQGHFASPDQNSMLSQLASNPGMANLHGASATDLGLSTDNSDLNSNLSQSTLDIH
Sequence of CBP/beta-catenin interaction (Q92793 whole entry, the tested form may be a part): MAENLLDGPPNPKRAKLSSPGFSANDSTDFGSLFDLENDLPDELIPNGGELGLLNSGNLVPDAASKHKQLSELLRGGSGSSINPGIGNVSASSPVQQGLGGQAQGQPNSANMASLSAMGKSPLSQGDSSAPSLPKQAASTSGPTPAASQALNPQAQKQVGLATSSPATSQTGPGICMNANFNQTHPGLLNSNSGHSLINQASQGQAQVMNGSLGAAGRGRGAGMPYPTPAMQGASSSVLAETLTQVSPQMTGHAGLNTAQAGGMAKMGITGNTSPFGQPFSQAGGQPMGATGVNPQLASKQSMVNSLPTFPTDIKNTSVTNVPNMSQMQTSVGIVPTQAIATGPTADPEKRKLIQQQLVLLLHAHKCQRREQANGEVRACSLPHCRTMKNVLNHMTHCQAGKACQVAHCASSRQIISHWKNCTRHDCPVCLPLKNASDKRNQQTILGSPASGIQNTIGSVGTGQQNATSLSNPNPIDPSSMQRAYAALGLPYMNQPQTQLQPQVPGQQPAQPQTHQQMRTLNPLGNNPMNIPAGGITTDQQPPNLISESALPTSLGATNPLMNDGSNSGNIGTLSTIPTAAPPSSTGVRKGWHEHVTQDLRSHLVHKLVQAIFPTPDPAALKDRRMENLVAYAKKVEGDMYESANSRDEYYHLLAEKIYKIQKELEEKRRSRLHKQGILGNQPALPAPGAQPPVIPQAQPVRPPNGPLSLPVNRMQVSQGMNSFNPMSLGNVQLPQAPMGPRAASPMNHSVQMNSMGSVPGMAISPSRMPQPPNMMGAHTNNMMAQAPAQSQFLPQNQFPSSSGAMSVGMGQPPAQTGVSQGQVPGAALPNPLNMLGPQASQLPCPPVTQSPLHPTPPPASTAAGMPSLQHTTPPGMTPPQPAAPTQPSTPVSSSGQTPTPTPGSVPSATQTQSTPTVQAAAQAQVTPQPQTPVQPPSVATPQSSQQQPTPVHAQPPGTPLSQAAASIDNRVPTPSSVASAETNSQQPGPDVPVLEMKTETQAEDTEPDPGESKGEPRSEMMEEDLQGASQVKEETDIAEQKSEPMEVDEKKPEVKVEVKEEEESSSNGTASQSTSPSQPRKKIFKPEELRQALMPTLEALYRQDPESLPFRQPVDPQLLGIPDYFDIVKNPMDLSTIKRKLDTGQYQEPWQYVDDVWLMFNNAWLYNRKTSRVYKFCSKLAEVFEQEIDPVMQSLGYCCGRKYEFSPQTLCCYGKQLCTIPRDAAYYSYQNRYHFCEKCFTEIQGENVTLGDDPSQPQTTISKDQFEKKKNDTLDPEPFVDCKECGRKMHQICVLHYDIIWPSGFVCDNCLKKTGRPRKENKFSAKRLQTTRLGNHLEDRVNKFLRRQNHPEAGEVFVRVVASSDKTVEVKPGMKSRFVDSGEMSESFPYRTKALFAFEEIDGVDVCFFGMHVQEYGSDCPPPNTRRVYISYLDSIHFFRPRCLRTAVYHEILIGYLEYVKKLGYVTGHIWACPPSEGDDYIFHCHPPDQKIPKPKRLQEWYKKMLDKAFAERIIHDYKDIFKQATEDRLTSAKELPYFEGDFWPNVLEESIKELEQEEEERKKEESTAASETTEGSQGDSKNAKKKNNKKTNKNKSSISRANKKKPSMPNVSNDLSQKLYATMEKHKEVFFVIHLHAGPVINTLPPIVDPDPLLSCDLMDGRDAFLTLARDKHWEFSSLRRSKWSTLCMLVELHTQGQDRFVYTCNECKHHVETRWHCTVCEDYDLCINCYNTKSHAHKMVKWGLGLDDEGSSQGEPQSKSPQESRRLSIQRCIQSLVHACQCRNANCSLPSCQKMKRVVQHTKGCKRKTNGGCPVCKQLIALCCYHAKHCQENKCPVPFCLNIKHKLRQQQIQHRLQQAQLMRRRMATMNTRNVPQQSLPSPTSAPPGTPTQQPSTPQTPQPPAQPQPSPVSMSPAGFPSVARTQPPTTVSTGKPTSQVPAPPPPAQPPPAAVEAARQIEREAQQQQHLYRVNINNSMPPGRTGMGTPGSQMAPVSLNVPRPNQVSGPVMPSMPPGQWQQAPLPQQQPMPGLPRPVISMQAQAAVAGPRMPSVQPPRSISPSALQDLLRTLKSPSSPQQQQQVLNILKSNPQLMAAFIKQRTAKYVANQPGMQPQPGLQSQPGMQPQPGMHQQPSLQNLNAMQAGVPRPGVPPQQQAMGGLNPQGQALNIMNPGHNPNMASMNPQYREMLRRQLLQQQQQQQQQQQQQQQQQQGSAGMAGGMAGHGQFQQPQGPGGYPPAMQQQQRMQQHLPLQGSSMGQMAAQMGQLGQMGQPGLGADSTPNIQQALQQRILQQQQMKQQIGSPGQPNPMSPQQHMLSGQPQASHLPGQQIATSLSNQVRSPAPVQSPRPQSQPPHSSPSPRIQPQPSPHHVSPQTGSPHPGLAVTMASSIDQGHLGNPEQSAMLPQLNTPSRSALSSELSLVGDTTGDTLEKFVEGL

## O=C1[C@H](Cc2ccc(O)cc2)N2C(=O)CCN(C(=O)NCc3ccccc3)[C@H]2CN1Cc1cccc2ccccc12 [ICG-001]
[1]
  increase of expression of adenosine receptors (ADORA2B): ~10 ×
[2]
  healing of wounds from pump insertion: had substantial improved; also recorded: heal quicker
[2]; within two weeks
  hair growth of shaved area: had regrown their hair; also recorded: substantial hair growth
[3]
  expression of aquaporin 1: increase
  expression of elastin: increase
[4]
  Aβ staining in the parietal lobe: significant (A) decrease
[4]; immunohistochemistry
  amyloid plaque formation: significant decrease
Colorectal cancer cells
  survivin expression: down-regulated
Colorectal cancer cells; colorectal cancer cells versus normal colonic epithelial cells
  cytotoxicity: selective cytotoxicity
[5]; NOD/SCID/IL2rγ−/− mice engrafted with human CML
  drug resistant leukemia stem cells: can be eliminated
[5]; in vitro and in vivo
  differentiation of the IR cells: induces the differentiation
[5]; mouse, in vivo
  effects on normal endogenous hematopoiesis: without deleterious effects
Min mouse
  polyps: reducing polyps
p300
  binding to p300: not to its closely related homolog p300
[6]
  interaction between CBP and beta-catenin: disrupted
SW620 xenograft
  tumor growth: reducing tumor growth
[7]; BAT-gal transgenic mice, intranasal bleomycin
  lacZ expression in airway and alveolar epithelium: significantly reduced
[7]; after bleomycin
  expression of genes associated with fibrosis, ECM deposition and EMT: essentially to the level of control
[7]; in vivo in the mouse
  expression of S100A4/FSP-1: significantly decreased
[7]; mouse model
  established fibrosis: could reverse established fibrosis
[7]; pretreatment
  severity of pulmonary fibrosis: significantly reduced the severity
